According to patent publication US20120035247A1, “RNA Interference Mediated Inhibition of Signal Transducer and Activator of Transcription 6 (STAT6) Gene Expression Using Short Interfering Nucleic Acid (siNA)” (Merck Sharp & Dohme Corp., priority 2009, published 2012):
[invAb] = inverted abasic unit; d = 2'-deoxy (DNA); m = 2'-O-methyl; r = 2'-OH (RNA); f = 2'-fluoro

How the values were obtained:
[1] = system: STAT6 mRNA; experiment: STAT6 siNA screen and dose response in human A549 cells, STAT6 mRNA by quantitative RT-PCR (Taqman); assay type: cell-based; conditions: human A549 cells, 10 nM siNA, 24 hrs, normalized to GAPDH and non-targeting control, mean ± S.D., n = 3
Protocol: A549 (human; ATCC cat# CCL-185): Cells were cultured at 37° C. in the presence of 5% CO2 and grown in Ham's F12K medium with 2 mM L-glutamine adjusted to contain 1.5 g/L sodium bicarbonate and supplemented with fetal bovine serum at a final concentration of 10%, 100 μg/mL of streptomycin, and 100 U/mL penicillin.
(§1) Cells were plated in all wells of a tissue-culture treated, 96-well plate at a final count of 5000 cells/well in […], of the appropriate culture media. The cells were cultured for 24 hours after plating at 37° C. in the presence of 5% CO2.
(§2) After 24 hours, complexes containing siNA and RNAiMax were created as follows: A solution of RNAiMax diluted 33-fold in OPTI-MEM was prepared. In parallel, solutions of the siNAs for testing were prepared to a final concentration of 120 nM in OPTI-MEM. After incubation of RNAiMax/OPTI-MEM solution at room temperature for 5 min, an equal volume of the siNA solution and the RNAiMax solution were added together for each of the siNAs.
(§3) This solution was incubated at room temperature for 20 minutes. After incubation, 20 uL of the solution was added to each of the relevant wells. The final concentration of siNA in each well was 10 nM and the final volume of RNAiMax in each well was 0.3u1.
(§4) The time of incubation with the RNAiMax-siNA complexes was 24 hours and there was no change in media between transfection and harvesting, unless otherwise indicated.
(§5) RNA was extracted from a 96-well plate using the TaqMan® Gene Expression Cells-to-CT™ Kit (Cat#4399002) with a modified protocol. Briefly, a 60 uL (1 plate) or 110 uL (2 plates) of the Lysis Solution with DNase I was dispensed into each well of the Lysis Buffer Plate (twin.tec full skirt plate). The lysis buffer and stop plates were stored at 4° C. until the cells were washed.
(§6) The plate was spun at 1100 rpm for 5 minutes. The culture medium was aspirated and discarded from the wells of the culture plate. The lysis was performed automatically using a BioMek FX instrument and method. After the Biomek method was completed, the lysis plate was incubated for 2 min. at room temperature. The lysis plate can be stored for 2 hours at 4° C., or at −20° C. or −80° C. for two months.
(§7) Each well of the reverse transcription plate required 10 uL of 2× reverse transcriptase Buffer, luL of 20× reverse transcription enzyme and 2 uL of nuclease-free water. The reverse transcription master mix was prepared by mixing 2× reverse transcription buffer, 20× reverse transcription enzyme mix, and nuclease-free water. 13 uL of the reverse transcription master mix was dispensed into each well of the reverse transcription plate (semi-skirted). A separate reverse transcription plate was prepared for each cell plate. The plate was loaded onto a Biomek NX or Biomek FX Dual-96 and the Biomek method was run. The program is programmed to automatically added 7 uL of lysate from the cell lysis procedure described above into each well of the reverse transcription plate. The plate is sealed and spun on a centrifuge (1000 rpm for 30 seconds) to settle the contents to the bottom of the reverse transcription plate. The plate is placed in a thermocycler at 37° C. for 60 min, 95° C. for 5 min, and 4° C. until the plate is removed from the thermocycler. Upon removal, if not used immediately, the plate was frozen at −20° C.
(§8) A series of probes and primers were used to detect the various mRNA transcripts of the genes of 13-Actin (human cell line only), and of STATE and GAPDH in mouse and human cell lines. All Taqman probes and primers for the experiments here-in described were supplied as pre-validated sets by Applied Biosystems, Inc. (see Table 2).
The assays were performed on an ABI 7900 instrument, according to the manufacturer's instructions. A TaqMan Gene Expression Master Mix (provided in the Cells-to-CTT™, Applied Biosystems, Cat #4399002) was used. The PCR reactions were carried out at 50° C. for 2 min, 95° C. for 20 min followed by 40 cycles at 95° C. for 15 secs and 60° C. for 1 min. […]

[2] = system: STAT6 mRNA; experiment: STAT6 siNA screen in mouse NIH 3T3 cells, STAT6 mRNA by quantitative RT-PCR (Taqman); assay type: cell-based; conditions: mouse NIH3T3 cells, 10 nM siNA, 24 hrs, normalized to GAPDH and non-targeting control, n = 2
Protocol: NIH 3T3 (mouse; ATCC cat# CRL-1658): Cells were cultured at 37° C. in the presence of 5% CO2 and grown in Dulbecco's modified Eagle's medium (DMEM) with 4 mM L-glutamine adjusted to contain 1.5 g/L sodium bicarbonate and 4.5 g/L glucose and supplemented with fetal bovine serum at a final concentration of 10%, 100 μg/mL of streptomycin, and 100 U/mL penicillin.
as §1, §2, §3, §4, §5, §6, §7, §8
The assays were performed on an ABI 7900 instrument, according to the manufacturer's instructions. A TaqMan Gene Expression Master Mix (provided in the Cells-to-CTT™, Applied Biosystems, Cat #4399002) was used. […]

Substance	% KD STAT6 [1] [%]	% KD STAT6 [2] [%]
30028-DC: STAT6 siNA duplex; sense SEQ ID NO: 120, antisense SEQ ID NO: 121; target CUGCCAAAGACCUGUCCAU, site 2049 (sense CUGCCAAAGACCUGUCCAUTT; antisense AUGGACAGGUCUUUGGCAGUU; sense: DNA at AGT, 2'-fluoro at CU, [invAb] at 5' end, 3' end, backbone not given here; antisense: sugars from the 5' end rrrmmfmmmfffffmmfmmmm, backbone not given here) [STAT6 siNA duplex; target CU…UGUCCAU, site 2049]	29.5 ± 6.4	31.1 ± 4.3
30027-DC: STAT6 siNA duplex; sense SEQ ID NO: 118, antisense SEQ ID NO: 119; target AAGACCCGGGCAUCGCUGA, site 1025 (sense AAGACCCGGGCAUCGCUGATT; antisense UCAGCGAUGCCCGGGUCUUUU; sense: DNA at AGT, 2'-fluoro at CU, [invAb] at 5' end, 3' end, backbone not given here; antisense: sugars from the 5' end rrrmfmmfmfffmmmffffmm, backbone not given here) [STAT6 siNA duplex; target …UCGCUGA, site 1025]	−0.8 ± 12.4	−3.3 ± 3.1
30020-DC: STAT6 siNA duplex; sense SEQ ID NO: 104, antisense SEQ ID NO: 105; target CUAGCCUUCUCCUCAAUGA, site 1928 (sense CUAGCCUUCUCCUCAAUGATT; antisense UCAUUGAGGAGAAGGCUAGUU; sense: DNA at AGT, 2'-fluoro at CU, [invAb] at 5' end, 3' end, backbone not given here; antisense: sugars from the 5' end r3 f2 m10 f2 m4, backbone not given here) [STAT6 siNA duplex; target CUAGCCUUCUCCUCAAUGA, site 1928]	58.8 ± 13.6	64.2 ± 7.9
29989-DC: STAT6 siNA duplex; sense SEQ ID NO: 42, antisense SEQ ID NO: 43; target GAAGGCUUCUCCGCCCAUU, site 3187 (sense GAAGGCUUCUCCGCCCAUUTT; antisense AAUGGGCGGAGAAGCCUUCUU; sense: DNA at AGT, 2'-fluoro at CU, [invAb] at 5' end, 3' end, backbone not given here; antisense: sugars from the 5' end rrrmmmfmmmmmmmfffffmm, backbone not given here) [STAT6 siNA duplex; target GAAGGCUUCUCCGCCCAUU, site 3187]	29.1 ± 3.8	−18.3 ± 7.1
30018-DC: STAT6 siNA duplex; sense SEQ ID NO: 100, antisense SEQ ID NO: 101; target CAGAAGAUCUUCAACGACA, site 1720 (sense CAGAAGAUCUUCAACGACATT; antisense UGUCGUUGAAGAUCUUCUGUU; sense: DNA at AGT, 2'-fluoro at CU, [invAb] at 5' end, 3' end, backbone not given here; antisense: sugars from the 5' end rrrfmffmmmmmffffffmmm, backbone not given here) [STAT6 siNA duplex; target CAGAAGAUCUUCAACGACA, site 1720]	66.8 ± 3.2	64.8 ± 0.7
29998-DC: STAT6 siNA duplex; sense SEQ ID NO: 60, antisense SEQ ID NO: 61; target CUUCUUAUGACCUUGGAAU, site 2274 (sense CUUCUUAUGACCUUGGAAUTT; antisense AUUCCAAGGUCAUAAGAAGUU; sense: DNA at AGT, 2'-fluoro at CU, [invAb] at 5' end, 3' end, backbone not given here; antisense: sugars from the 5' end rrrffmmmmffmfmmmmmmmm, backbone not given here) [STAT6 siNA duplex; target CUUCUUAUGACCUUGGAAU, site 2274]	32.5 ± 3.5	−3.8 ± 9.2
30017-DC: STAT6 siNA duplex; sense SEQ ID NO: 98, antisense SEQ ID NO: 99; target GAUGCUUUCUGUUACAACA, site 421 (sense GAUGCUUUCUGUUACAACATT; antisense UGUUGUAACAGAAAGCAUCUU; sense: DNA at AGT, 2'-fluoro at CU, [invAb] at 5' end, 3' end, backbone not given here; antisense: sugars from the 5' end rrrfmfmmfmmmmmmfmffmm, backbone not given here) [STAT6 siNA duplex; target GAUGCUUUCUGUUACAACA, site 421]	−14.9 ± 9.1	85.1 ± 2
29995-DC: STAT6 siNA duplex; sense SEQ ID NO: 54, antisense SEQ ID NO: 55; target CAGGAUGGCUCUCCACAGA, site 2009 (sense CAGGAUGGCUCUCCACAGATT; antisense UCUGUGGAGAGCCAUCCUGUU; sense: DNA at AGT, 2'-fluoro at CU, [invAb] at 5' end, 3' end, backbone not given here; antisense: sugars from the 5' end rrrmfmmmmmmffrffffmmm, backbone not given here) [STAT6 siNA duplex; target CAGGAUGGCUCUCCACAGA, site 2009]	20.4 ± 5.1	−6.6 ± 1.3
30007-DC: STAT6 siNA duplex; sense SEQ ID NO: 78, antisense SEQ ID NO: 79; target GGAAGUUCAGGCUCUGAGA, site 3048 (sense GGAAGUUCAGGCUCUGAGATT; antisense UCUCAGAGCCUGAACUUCCUU; sense: sugars from the 5' end d5 f3 d3 f4 d6, [invAb] at 5' end, 3' end, backbone not given here; antisense: sugars from the 5' end rrrfmmmmfffmmmfffffmm, backbone not given here) [STAT6 siNA duplex; target GGAAGUUCAGGCUCUGAGA, site 3048]	59.8 ± 8.6	8.1 ± 0.8
30016-DC: STAT6 siNA duplex; sense SEQ ID NO: 96, antisense SEQ ID NO: 97; target GCCAGAUAACCAUGCCCUU, site 2447 (sense GCCAGAUAACCAUGCCCUUTT; antisense AAGGGCAUGGUUAUCUGGCUU; sense: DNA at AGT, 2'-fluoro at CU, [invAb] at 5' end, 3' end, backbone not given here; antisense: sugars from the 5' end rrrmmfmfmmffmfffmmfmm, backbone not given here) [STAT6 siNA duplex; target GCCAGAUAACCAUGCCCUU, site 2447]	−20 ± 8.9	61.8 ± 2.3
